Measurements taken from patent US8389573B2, “Glycyrrhetinic acid derivatives” (Wellington Laboratories Inc., priority 2006, dated 2013).

What was measured:
HT-29 colon cancer cells = assay: Cell proliferation assay in HT-29 cells; type: cell-based; settings: Homo sapiens, read-out: IC50, growth inhibition / cell proliferation
Protocol: (§1) Human colon carcinoma cell lines SW480 and HT29 were provided by Dr. Stan Hamilton, M.D. Anderson Cancer Center (Houston, Tex.); SW-480 and HT-29 cells were maintained in Dulbecco's modified Eagle's medium nutrient mixture with Ham's F-12 (DMEM/Ham's F-12; Sigma-Aldrich, St. Louis, Mo.) with phenol red supplemented with 0.22% sodium bicarbonate, 0.011% sodium pyruvate, and 5% fetal bovine serum and 10 ml/l 100× antibiotic antimycotic solution (Sigma-Aldrich). Cells were maintained at 37° C. in the presence of 5% CO2.
(§2) SW480 and HT 29 Cells (2×10^4) were plated in 12-well plates, and media were replaced the next day with DMEM/Ham's F-12 media containing 2.5% charcoal-stripped FBS and either vehicle (DMSO) or the indicated ligand and dissolved in DMSO. Fresh media and compounds were added every 48 h. Cells were counted at the indicated times using a Coulter Z1 cell counter. Each experiment was done in triplicate, and results are expressed as means±S.E. for each determination

PPARγ [1] = assay: PPARγ-GAL4/pGAL4 transfection and luciferase assay in HT-29 cells; type: cell-based
Protocol: (§3) The Gal4 reporter containing 5× Gal4 response elements (pGal4) was kindly provided by Dr. Marty Mayo (University of North Carolina, Chapel Hill, N.C.). Gal4 DBD-PPARγ construct (gPPARγ) was a gift of Dr. Jennifer L. Oberfield (GlaxoSmithKline Research and Development, Research Triangle Park, N.C.). PPRE3-luc construct contains three tandem PPREs with a minimal TATA sequence in pGL2.
(§4) Colon Cancer cell lines SW480 and HT29 (1×10^5 cells/well) were plated in 12-well plates in DMEM/Ham's F-12 media supplemented with 2.5% charcoal-stripped FBS. After 16 h, various amounts of DNA [i.e., Gal4Luc (0.4 μg), β-Gal (0.04 μg), Gal4PPAR and PPRE3-Luc (0.04 μg)] were transfected using LipofectAMINE™ reagent (Invitrogen) following the manufacturer's protocol. Five hours after transfection, the transfection mix was replaced with complete media containing either vehicle (DMSO) or the indicated ligand for 20 to 22 h. Cells were then lysed with 100 μl of 1× reporter lysis buffer, and 30 μl of cell extract was used for luciferase and […] assays. A LumiCount™ luminometer (PerkinElmer Life and Analytical Sciences) was used to quantitate luciferase and β-Gal activities, and the luciferase activities were normalized to β-Gal activity. Results are expressed as means±S.E. for at least three replicate determinations for each treatment group

SW480 colon cancer cells = assay: Cell proliferation assay in SW480 cells; type: cell-based; settings: Homo sapiens, read-out: IC50, growth inhibition / cell proliferation
Protocol: as §1, §2

PPARγ [2] = target: T1, PPARγ (Homo sapiens, UniProt P37231); assay: PPRE3-Luc transfection and luciferase assay in SW480 cells; type: cell-based
T1 construct: endogenous in cells; host or cells: SW480 colon cancer cells
T1 sequence (P37231 1-505): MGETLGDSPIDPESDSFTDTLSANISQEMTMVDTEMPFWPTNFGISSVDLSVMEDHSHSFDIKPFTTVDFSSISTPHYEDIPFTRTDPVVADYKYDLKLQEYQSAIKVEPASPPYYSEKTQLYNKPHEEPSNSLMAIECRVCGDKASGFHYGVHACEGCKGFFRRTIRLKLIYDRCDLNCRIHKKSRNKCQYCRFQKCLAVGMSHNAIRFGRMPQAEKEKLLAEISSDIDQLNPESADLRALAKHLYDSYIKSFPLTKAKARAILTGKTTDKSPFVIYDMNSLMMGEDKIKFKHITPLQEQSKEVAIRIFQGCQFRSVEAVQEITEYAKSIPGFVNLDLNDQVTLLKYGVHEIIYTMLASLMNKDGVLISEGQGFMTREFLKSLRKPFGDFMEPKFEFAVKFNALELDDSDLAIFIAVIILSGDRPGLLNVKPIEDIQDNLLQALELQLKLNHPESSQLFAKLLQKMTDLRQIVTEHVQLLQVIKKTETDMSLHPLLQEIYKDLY
Protocol: as §3, §4

PPARγ [3] = assay: PPARγ-GAL4/pGAL4 transfection and luciferase assay in SW480 cells; type: cell-based; settings: for PPARγ transactivation: up to 30 μM
Protocol: as §3, §4

SW480 cells = assay: Western blot analysis in SW480 cells; type: cell-based, human
Protocol: SW-480 and HT-29 (3×10^5) cells were seeded in six-well plates in DMEM/Ham's F-12 media containing 2.5% charcoal-stripped FBS for 24 h and then treated with either the vehicle (DMSO) or the indicated compounds. Whole-cell lysates were obtained using high-salt buffer [50 mM HEPES, 500 mM NaCl, 1.5 mM MgCl2, 1 mM EGTA, 10% glycerol, and 1% Triton X-100, pH 7.5, and 5 μl/ml Protease Inhibitor Cocktail (Sigma-Aldrich)]. Protein samples were incubated at 100° C. for 2 min, separated on 10% SDS-PAGE at 120 V for 3 to 4 h in 1× running buffer (25 mM Tris-base, 192 mM glycine, and 0.1% SDS, pH 8.3), and transferred to polyvinylidene difluoride membrane (PVDF; Bio-Rad, Hercules, Calif.) at […] for 16 h at 4° C. in 1× transfer buffer (48 mM Tris-HCl, 39 mM glycine, and 0.025% SDS). The PVDF membrane was blocked in 5% TBST-Blotto (10 mM Tris-HCl, 150 mM NaCl, pH 8.0, 0.05% Triton X-100, and 5% nonfat dry milk) with gentle shaking for 30 min and was incubated in fresh 5% TBST-Blotto with 1:1000 (for caveolin-1, p27, p21, cyclin D1, Grp78), 1:500 (for KLF4, NAG-1), 1:250 (for PARP), and 1:5000 (for β-actin) primary antibody overnight with gentle shaking at 4° C. After washing with TBST for 10 min, the PVDF membrane was incubated with secondary antibody (1:5000) in 5% TBST-Blotto for 90 min. The membrane was washed with TBST for 10 min, incubated with 10 ml of chemiluminescence substrate (PerkinElmer) for 1.0 min, and exposed to Kodak X-OMAT AR autoradiography film (Eastman Kodak, Rochester, N.Y.).

[4] = test system: Panc28 pancreatic cancer cells; assay: Growth inhibition in Panc28 pancreatic cancer cells; type: cell-based; settings: Pancreatic cancer cell
PPARγ [5] = assay: PPARγ-GAL4/GAL4-Luc or PPRE3-Luc transactivation in LNCaP cells; type: cell-based; settings: 1-5 μM
From the text: Transfections: The Gal4 reporter construct containing 5× Gal4 response elements (pGal4) was kindly provided by Dr. Marty Mayo (University of North Carolina, Chapel Hill, N.C.). The Gal4 DBD-PPARγ construct was a gift of Dr. Jennifer L. Oberfield (Glaxo Wellcome Research and Development, Research Triangle Park, N.C.). The PPRE-luc construct contains three tandem PPREs with a minimal TATA sequence linked to the luciferase gene in pGL2. The AR-luc construct containing the −5400 to +580 region of the androgen receptor promoter was provided by Dr. Donald J. Tindall (Mayo Clinic, Rochester, Minn.), and the PSA-luc construct containing the 5.8-kilobase region of the PSA promoter was provided by Dr. Hong-Wu Cheng (University of California, Davis, Calif.). LNCaP cells (1×10^5) were seeded in 12-well plates in DMEM/Ham's F-12 media supplemented with 2.5% charcoal-stripped FBS and grown overnight. Transient transfections were performed using Lipofectamine reagent (Invitrogen) according to the protocol provided by the manufacturer. Transfection studies were performed using 0.4 μg of Gal4Luc, 0.04 μg of β-galactosidase, 0.04 μg of Gal4 DBD-PPARγ, 0.4 μg of AR-luc, and 0.3 μg of PSA-luc. Six hr after transfection, the transfection mix was replaced with complete media containing either vehicle (DMSO) or the indicated ligand for 20 to 22 hr. Cells were then lysed with 100 μl of 1× reporter lysis buffer, and 30 μl of cell extract was used for luciferase and β-galactosidase assays. A Lumicount luminometer (PerkinElmer Life and Analytical Sciences) was used to quantify luciferase and β-galactosidase activities, and the luciferase activities were normalized to β-galactosidase activity.

[6] = test system: LNCaP human prostate carcinoma cells; assay: Cell proliferation assay in LNCaP cells; type: cell-based; settings: 96 hr, read-out: IC50, inhibition of LNCaP cell growth
Protocol: Cell lines: LNCaP human prostate carcinoma cells were obtained from American Type Culture Collection (Manassas, Va.). Fetal bovine serum was obtained from JRH Biosciences, Lenexa, Kans. LNCaP cells were maintained in RPMI 1640 (Sigma Chemical, St. Louis, Mo.) supplemented with 0.22% sodium bicarbonate, 0.011% sodium pyruvate, 0.45% glucose, 0.24% HEPES, 10% FBS, and 10 mL/L of 100× antibiotic/antimycotic solution (Sigma). Cells were maintained at 37° C. in the presence of 5% CO2.
Cell Proliferation and DNA Fragmentation Assays: LNCaP prostate cancer cells (2×10^4 per well) were added to 12-well plates and allowed to attach for 24 hr. The medium was then changed to DMEM/Ham's F-12 media containing 2.5% charcoal-stripped FBS, and either vehicle (DMSO) or the indicated C-DIMs were added. Fresh medium and indicated compounds were added every 48 hr, and cells were then trypsinized and counted after 2, 4, and 6 days using a Coulter Z1 cell counter (Beckman Coulter, Fullerton, Calif.). Each experiment was done in triplicate, and results are expressed as means±S.E. for each set of three experiments. The DNA fragmentation assay was performed using a BioVision Apoptotic DNA ladder extraction kit (BioVision, Mountain View, Calif.) according to the manufacturer's protocol.

PPARγ [7] = settings: SW480 cells, previous studies (22); cited from earlier work

IC50 (HT-29 colon cancer cells)	melting point	IC50 (SW480 colon cancer cells)	Compound	PPARγ transactivation (GAL4-PPARγ/GAL4-Luc) (PPARγ [1])	PPARγ-dependent transactivation (luciferase activity) (PPARγ [5])	IC50 [6]	PPARγ transactivation (PPARγ [3])	also measured
1 µM	195 to 197 °C	2.5 to 5 µM	CC1(C)C(=O)C(C#N)=C[C@]2(C)[C@H]3C(=O)C=C4[C@@H]5C[C@@](C)(C(=O)O)CC[C@]5(C)CC[C@@]4(C)[C@]3(C)CC[C@@H]12 [β-CDODA, 2-cyano-3,11-dioxo-18β-oleana-1,12-dien-30-oic acid]	induced transactivation				transactivation of PPRE3-Luc (PPARγ [2]): induced transactivation; PPRE3-Luc transactivation after cotreatment with PPARγ antagonists T007 and GW9662 (PPARγ [2]; 10 μM antagonist): inhibited; induced luciferase activity after cotreatment with PPARγ antagonist T007 (PPARγ [3]; 1.0, 2.5, 5.0 β-CDODA-Me or 10, 20, 30 μM β-CDODA, 10 μM T007): inhibited; increase in luciferase activity (PPARγ activation) (PPARγ [3]; 20-30 μM): < 4.5 fold; concentration at which KLF4 is induced (SW480 cells; SW480, 24 hr): 10 to 20 µM; PARP cleavage (SW480 cells; SW480, 24 hr, 10-40 μM): observed
		0.5 µM	COC(=O)[C@@]1(C)CC[C@]2(C)CC[C@]3(C)C(=CC(=O)[C@@H]4[C@@]5(C)C=C(C#N)C(=O)C(C)(C)[C@@H]5CC[C@]43C)[C@H]2C1 [α-CDODA-Me, Methyl 2-cyano-3,11-dioxo-18α-oleana-1,12-dien-30-oate]					IC50 [4]: 0.5 to 1 µM
			Methyl 2-iodo-3,11-dioxo-18β-oleana-1,12-diene-30-oate [β-IDODA-Me]		did not activate PPARγ			
			CC1(C)CC[C@]2(C(=O)O)CC[C@]3(C)[C@H](C(=O)C=C4[C@@]5(C)C=C(C#N)C(=O)C(C)(C)[C@@H]5CC[C@]43C)[C@@H]2C1 [CDDO, 2-cyano-3,12-dioxo-oleana-1, 9(11)-diene-28-oic acid, reference compound]					luciferase activity with GAL4-PPARγ/GAL4-Luc (PPARγ [7]): induced luciferase activity; caveolin-1 protein expression (SW480 cells; SW480, treatment for 3 days): induce caveolin-1 protein
20 to 30 µM	270 to 275 °C	25 µM	CC1(C)C(=O)C=C[C@]2(C)[C@H]3C(=O)C=C4[C@@H]5C[C@@](C)(C(=O)O)CC[C@]5(C)CC[C@@]4(C)[C@]3(C)CC[C@@H]12 [β-DODA, 3,11-Dioxo-18β-oleana-1,12-dien-30-oic acid]	minimal activity		> 15 µM	did not enhance transactivation	

Compound	IC50 (HT-29 colon cancer cells)	melting point	IC50 (SW480 colon cancer cells)	PPARγ transactivation (GAL4-PPARγ/GAL4-Luc) (PPARγ [1])	PPARγ-dependent transactivation (luciferase activity) (PPARγ [5])	IC50 [6]	PPARγ transactivation (PPARγ [3])	also measured
COC(=O)[C@@]1(C)CC[C@]2(C)CC[C@]3(C)C(=CC(=O)[C@@H]4[C@@]5(C)C=CC(=O)C(C)(C)[C@@H]5CC[C@]43C)[C@@H]2C1 [β-DODA-Me, Methyl 3,11-dioxo-18β-oleana-1,12-dien-30-oate]	5 to 10 µM	192 to 194 °C	10 µM	minimal activity	did not activate PPARγ	10 to 15 µM	did not enhance transactivation	
